Tests used:
Assay in all cases: relative viability (nuclei count vs DMSO), 5 days (fraction); higher = more cells survive
MK-2206 + Tozasertib = compound: NC1(c2ccc(-c3nc4ccn5c(=O)[nH]nc5c4cc3-c3ccccc3)cc2)CCC1 [MK-2206] + Cc1cc(Nc2cc(N3CCN(C)CC3)nc(Sc3ccc(NC(=O)C4CC4)cc3)n2)n[nH]1 [Tozasertib] (partner 0.1 µM)
How it was run: (§1)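 A single step with final 0.05% Triton X-100, 1% formaldehyde and 1 ug/ml Hoechst fixed the cells and stained nuclei 5 days after treatment. Lung cancer cell lines in 1536-well plates had been treated by pin tool the day after seeding with one drug alone or a fixed anchor-drug dose plus five library-drug doses (not always all listed) in √10 steps, and nuclei were counted on 4× images. Relative viability is the ratio of nuclei in treated wells to nuclei in vehicle wells, taken as the median of duplicate plates.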

Pictilisib + Decitabine = compound: CS(=O)(=O)N1CCN(Cc2cc3nc(-c4cccc5[nH]ncc45)nc(N4CCOCC4)c3s2)CC1 [Pictilisib] + Nc1ncn([C@H]2C[C@H](O)[C@@H](CO)O2)c(=O)n1 [Decitabine] (partner 2 µM)
How it was run: as §1

MK-2206 + Olaparib = compound: NC1(c2ccc(-c3nc4ccn5c(=O)[nH]nc5c4cc3-c3ccccc3)cc2)CCC1 [MK-2206] + O=C(c1cc(Cc2n[nH]c(=O)c3ccccc23)ccc1F)N1CCN(C(=O)C2CC2)CC1 [Olaparib] (partner 8 µM)
How it was run: as §1

Pictilisib + Navitoclax = compound: CS(=O)(=O)N1CCN(Cc2cc3nc(-c4cccc5[nH]ncc45)nc(N4CCOCC4)c3s2)CC1 [Pictilisib] + CC1(C)CCC(c2ccc(Cl)cc2)=C(CN2CCN(c3ccc(C(=O)NS(=O)(=O)c4ccc(N[C@H](CCN5CCOCC5)CSc5ccccc5)c(S(=O)(=O)C(F)(F)F)c4)cc3)CC2)C1 [Navitoclax] (partner 0.5 µM)
How it was run: as §1

Pictilisib + Bortezomib = compound: CS(=O)(=O)N1CCN(Cc2cc3nc(-c4cccc5[nH]ncc45)nc(N4CCOCC4)c3s2)CC1 [Pictilisib] + CC(C)C[C@H](NC(=O)[C@H](Cc1ccccc1)NC(=O)c1cnccn1)B(O)O [Bortezomib] (partner 0.002 µM)
How it was run: as §1

| Cell Line | relative viability (MK-2206 + Tozasertib; first compound 0.01 µM) | relative viability (MK-2206 + Tozasertib; first compound 0.03162 µM) | relative viability (MK-2206 + Tozasertib; first compound 0.3162 µM) | relative viability (MK-2206 + Tozasertib; first compound 1 µM) | relative viability (Pictilisib + Decitabine; first compound 0.02 µM) | relative viability (Pictilisib + Decitabine; first compound 0.06325 µM) | relative viability (Pictilisib + Decitabine; first compound 0.6325 µM) | relative viability (Pictilisib + Decitabine; first compound 2 µM) | relative viability (MK-2206 + Olaparib; first compound 0.01 µM) | relative viability (MK-2206 + Olaparib; first compound 0.03162 µM) | relative viability (MK-2206 + Olaparib; first compound 0.3162 µM) | relative viability (MK-2206 + Olaparib; first compound 1 µM) | relative viability (Pictilisib + Navitoclax; first compound 0.02 µM) | relative viability (Pictilisib + Navitoclax; first compound 0.06325 µM) | relative viability (Pictilisib + Navitoclax; first compound 0.6325 µM) | relative viability (Pictilisib + Navitoclax; first compound 2 µM) | relative viability (Pictilisib + Bortezomib; first compound 0.02 µM) | relative viability (Pictilisib + Bortezomib; first compound 0.06325 µM) | relative viability (Pictilisib + Bortezomib; first compound 0.6325 µM) | relative viability (Pictilisib + Bortezomib; first compound 2 µM) |
| --- | --- | --- | --- | --- | --- | --- | --- | --- | --- | --- | --- | --- | --- | --- | --- | --- | --- | --- | --- | --- |
| HCC-44 | 0.993 | 1.1 | 1.03 | 0.98 | 0.92 | 0.958 | 0.926 | 0.94 | 1.06 | 1 | 1.04 | 0.97 | 0.974 | 0.848 | 0.866 | 0.622 | 1.04 | 0.9 | 0.994 | 0.631 |
| IA-LM |  |  |  |  |  |  |  |  | 0.869 | 0.791 | 0.993 | 0.781 | 0.777 | 0.898 | 0.766 | 0.309 | 0.791 | 0.721 | 0.732 | 0.308 |
| LCLC-103H | 0.495 | 0.609 | 0.516 | 0.477 | 0.705 | 0.77 | 0.55 | 0.617 | 0.548 | 0.768 | 0.777 | 0.731 |  |  |  |  | 1.02 | 0.982 | 0.779 | 0.775 |
| LK-2 | 0.174 | 0.165 | 0.186 | 0.168 | 0.238 | 0.302 | 0.197 | 0.163 | 0.822 | 0.852 | 0.664 | 0.467 | 0.879 | 0.585 | 0.63 | 0.321 |  |  |  |  |
| NCI-H358 | 0.0987 | 0.112 | 0.097 | 0.0994 | 0.199 | 0.199 | 0.18 | 0.115 | 0.61 | 0.641 | 0.541 | 0.56 |  |  |  |  |  |  |  |  |
| NCI-H522 | 0.593 | 0.518 | 0.62 | 0.513 | 0.66 | 0.609 | 0.657 | 0.607 | 0.668 | 0.624 | 0.629 | 0.666 |  |  |  |  |  |  |  |  |
| NCI-H650 | 0.703 | 0.76 | 0.751 | 0.772 | 0.336 | 0.297 | 0.318 | 0.411 | 0.4 | 0.362 | 0.383 | 0.391 |  |  |  |  | 1.04 | 0.938 | 0.526 | 0.445 |
| NCI-H661 | 0.377 | 0.354 | 0.373 | 0.364 | 0.546 | 0.58 | 0.523 | 0.412 | 0.768 | 0.751 | 0.763 | 0.738 |  |  |  |  | 0.771 | 0.738 | 0.616 | 0.258 |
| NCI-H1299 |  |  |  |  |  |  |  |  | 0.967 | 1.04 | 1.05 | 1.02 | 1.09 | 1.05 | 1.1 | 1.13 | 1.02 | 1.04 | 1.07 | 1.05 |
| NCI-H1395 | 0.825 | 0.693 | 0.683 | 0.631 | 0.708 | 0.798 | 0.652 | 0.5 | 0.492 | 0.49 | 0.418 | 0.411 | 1.17 | 1.27 | 0.99 | 0.6 |  |  |  |  |
| NCI-H1563 |  |  |  |  |  |  |  |  |  |  |  |  |  |  |  |  | 0.992 | 0.839 | 0.605 | 0.554 |
| NCI-H1623 | 0.458 | 0.394 | 0.456 | 0.44 |  |  |  |  |  |  |  |  |  |  |  |  |  |  |  |  |
| NCI-H1648 | 0.508 | 0.689 | 0.657 | 0.504 | 0.528 | 0.469 | 0.367 | 0.319 | 1.01 | 1.11 | 0.966 | 0.769 |  |  |  |  |  |  |  |  |
| NCI-H1703 |  |  |  |  |  |  |  |  | 0.444 | 0.426 | 0.443 | 0.407 | 1.38 | 0.805 | 0.305 | 0.204 | 0.327 | 0.235 | 0.19 | 0.13 |
| NCI-H1792 |  |  |  |  | 0.509 | 0.592 | 0.491 | 0.22 | 0.497 | 0.514 | 0.532 | 0.264 | 0.641 | 0.728 | 0.383 | 0.226 | 0.986 | 0.962 | 0.835 | 0.418 |
| NCI-H1793 | 0.349 | 0.345 | 0.302 | 0.284 | 0.436 | 0.518 | 0.343 | 0.239 | 0.87 | 1.02 | 0.791 | 0.766 | 0.397 | 0.388 | 0.308 | 0.171 |  |  |  |  |
| NCI-H1944 | 0.249 | 0.244 | 0.251 | 0.24 | 0.423 | 0.352 | 0.391 | 0.315 | 0.388 | 0.439 | 0.429 | 0.478 | 1.04 | 0.99 | 0.974 | 0.394 |  |  |  |  |
| NCI-H2170 | 0.789 | 0.717 | 0.659 | 0.763 | 0.46 | 0.445 | 0.462 | 0.366 | 0.617 | 0.585 | 0.597 | 0.558 | 0.619 | 0.487 | 0.452 | 0.231 |  |  |  |  |
| NCI-H2228 | 0.388 | 0.235 | 0.221 | 0.11 |  |  |  |  | 0.832 | 0.594 | 0.464 | 0.417 | 0.948 | 0.563 | 0.59 | 0.181 | 0.915 | 1.04 | 0.689 | 0.528 |
| NCI-H2342 | 0.608 | 0.535 | 0.452 | 0.402 | 0.736 | 0.672 | 0.688 | 0.445 | 0.444 | 0.471 | 0.386 | 0.353 |  |  |  |  |  |  |  |  |
| SK-MES-1 | 0.813 | 0.847 | 0.885 | 0.794 | 0.351 | 0.388 | 0.359 | 0.339 | 0.635 | 0.727 | 0.692 | 0.482 | 1.21 | 1.19 | 0.89 | 0.431 |  |  |  |  |
| SW 900 | 0.561 | 0.531 | 0.569 | 0.698 | 0.367 | 0.524 | 0.45 | 0.418 | 0.79 |  | 0.874 | 0.885 |  |  |  |  |  |  |  |  |

From the supplement of paper PMC10307832
